In experiment [1] the target is T1, Ba/F3 ETV6-FGFR4-V550L cells (Homo sapiens, UniProt P22455, V550L, cells depend on it).
T1 construct: fused on or other part: N-terminal part of ETV6 (TEL), the oligomerising partner of the fusion; already named as the first entry; P41212 (Transcription factor ETV6)
Description: Inhibition of cell proliferation (CCK-8), Ba/F3 ETV6-FGFR4-V550L cells. In kind it is cell-based. The following applies: 72 hours of incubation, read-out: Ba/F3 ETV6-FGFR4-V550L IC50. Here is the method: (§1) Compounds were assayed for inhibiting cell proliferation, and the specific method was as follows: • 1. Cells were cultured to a logarithmic growth phase, pipetted evenly, transferred to a 15 mL centrifuge tube, and centrifuged at 1000 rpm at room temperature for 4 minutes; • 2. The supernatant was discarded; 5 mL of complete medium was added and pipetted evenly; 10 μL of cell suspension was weighed, mixed well with 10 μL of 0.4% trypan blue, and counted under a cell counter; the proportion of living cells was ensured to be above 90%; • 3. The cell suspension was seeded into a 96-well plate (80 μL of cell suspension per well) according to the conditions shown in Table 5; in the outer 36 wells of the 96-well plate, no cells were added but only sterile water was added; only the inner 60 wells were used for cell assay and control; • 4. 5× compound dilution: the compounds were serially diluted 4-fold to give a total of 9 concentrations; 80-fold overall dilution was completed with complete medium, the resulting concentration was 5 times the final drug concentration, and DMSO concentration was 1.25%; • 5. 20 μL of the corresponding compounds with different concentrations were added to each well of assay wells of the 96-well plate; 20 μL of complete medium was added to positive and negative control wells and shaken well; and the final concentration of DMSO in each well was 0.25%; • 6. After 72 hours of incubation, 10 μL of CCK-8 reagent was added to each well and further incubated at 37° C. for 1-2 hours; and the OD value was read at 450 nm; 7. Cell survival rate (%)=[(As−Ab)/(Ac−Ab)]*100% • As: Assay well (medium containing cells, CCK-8, compound) • Ac: Control well (medium containing cells, CCK-8) • Ab: Blank well (medium without cell and compound, CCK-8) • 8. The values were imported into Graphpad Prism 5 software for IC50 calculation.

The target in experiment [2] is T2, Ba/F3 ETV6-FGFR4 cells (Homo sapiens, UniProt P22455).
T2 construct: fused on or other part: N-terminal part of ETV6 (TEL), the oligomerising partner that makes the FGFR4 kinase constitutively active; P41212 (Transcription factor ETV6)
The experiment in a line: Inhibition of cell proliferation (CCK-8), Ba/F3 ETV6-FGFR4 cells. The following applies: 72 hours of incubation, read-out: Ba/F3 ETV6-FGFR4 IC50. The class given is cell-based. The method, then: as §1

Experiment [3] addresses FGFR4 kinase (Homo sapiens, UniProt P22455). The experiment in a line: Inhibition of FGFR4 kinase activity (ULight-labeled JAK-1 peptide, EU665/EU615 reading). The following applies: FGFR4 kinase 3.85 nM, ATP 100 μM, enzymatic reaction 2 hours. The class given is biochemical. Here is the method: (§2) Assay of activity of small molecule compounds on inhibiting FGFR4 kinase and FGFR4 V550L mutant kinase. The assay method was as follows:
(§3) 1) Dilution of Compounds:
(§4) In a 96-well plate a, the compounds were serially diluted 3-fold with DMSO to form 11 concentrations, and the 12th concentration was pure DMSO (as a positive control); In a new 96-well plate b, the above solutions were diluted 25-fold with ultrapure water (DMSO concentration was 4%).
(§5) 2) Transferring Compounds to a 384-Well Plate:
(§6) The above solutions of compounds diluted with ultrapure water in the 96-well plate b were pipetted into corresponding wells of a 384-well plate.
(§7) 3) Adding 4× kinase solution: 2.5 μl of the above 4× kinase solutions were pipetted with a multi-channel pipette into corresponding reaction wells of the 384-well plate, and the mixture was mixed well and pre-reacted at room temperature for 5 minutes.
(§8) 4) Adding 2× substrate/ATP mixture: 5 μl of the above 2× substrate/ATP mixtures were pipetted with a multi-channel pipette into corresponding reaction wells of the 384-well plate.
(§9) 5) Negative control: negative control wells were set up in the 384-well plate by adding 2.5 μl of 4× substrate, 2.5 μl of 4× enzyme solution, 2.5 μl of 1× kinase Assay Buffer and 2.5 μl of ultrapure water containing 4% DMSO to each well.
(§10) 6) Centrifuging, mixing well, and reacting at room temperature in the dark for 2 hours.
(§11) 7) Terminating the Enzymatic Reaction:
(§12) 5 μl of the above 4× stop solutions were pipetted into corresponding wells of the 384-well plate, and the mixture was centrifuged, mixed well, and then reacted at room temperature for 5 minutes.
(§13) 8) Development of the Reaction:
(§14) 5 μl of the above 4× detection solutions were pipetted into corresponding wells of the 384-well plate, and the mixture was centrifuged, mixed well, and then reacted at room temperature for 1 hour.
(§15) 9) The 384-well plate was placed into a plate reader, and the signal was detected using the appropriate program.
(§16) 10) Analysis of IC50: Reading of well=10000*EU665 value/EU615 value Inhibition rate=(reading of positive control well−reading of assay well)/(reading of positive control well−reading of negative control well)*100%
(§17) The corresponding IC50 can be calculated by inputting the drug concentrations and corresponding inhibition rates into GraphPad Prism 5 and processing.
Assay Conditions for Screening FGFR4 Kinase Activity Inhibitory Molecule:
The final concentration of FGFR4 kinase in the reaction system was 3.85 nM, the final concentration of ATP was 100 μM, the final concentration of substrate ULight™-labeled JAK-1 (Tyr1023) Peptide was 100 nM, and the time for enzymatic reaction was 2 hours.
The highest final concentration of the compound in the reaction system was 2.5 μM. After serial 3-fold dilution, there were 11 concentrations in total, and the lowest final concentration was 0.042 nM. The final concentration of DMSO was 1%.

Experiment [4] concerns the target FGFR4 V550L kinase (Homo sapiens, UniProt P22455, V550L). The experiment in a line: Inhibition of FGFR4 V550L mutant kinase activity (ULight-labeled PolyGT, EU665/EU615 reading). The class given is biochemical. Conditions: FGFR4 V550L kinase 1 nM, ATP 10 μM, enzymatic reaction 2 hours. The method, then: as §2, §3, §4, §5, §6, §7, §8, §9, §10, §11, §12, §13, §14, §15, §16, §17
Assay Conditions for Screening FGFR4 V550L Kinase Activity Inhibitory Molecule:
The final concentration of FGFR4 V550L kinase in the reaction system was 1 nM, the final concentration of ATP was 10 μM, the final concentration of substrate ULight™-labeled PolyGT was 100 nM, and the time for enzymatic reaction was 2 hours.
The highest final concentration of the compound in the reaction system was 2.5 μM. After seral 3-fold dilution, there were 11 concentrations in total, and the lowest final concentration was 0.042 nM. The final concentration of DMSO was 1%.

The IC50 is the point on the concentration scale where inhibition reaches its midpoint.

Sequence of FGFR4 V550L kinase (P22455 22-802 V550L): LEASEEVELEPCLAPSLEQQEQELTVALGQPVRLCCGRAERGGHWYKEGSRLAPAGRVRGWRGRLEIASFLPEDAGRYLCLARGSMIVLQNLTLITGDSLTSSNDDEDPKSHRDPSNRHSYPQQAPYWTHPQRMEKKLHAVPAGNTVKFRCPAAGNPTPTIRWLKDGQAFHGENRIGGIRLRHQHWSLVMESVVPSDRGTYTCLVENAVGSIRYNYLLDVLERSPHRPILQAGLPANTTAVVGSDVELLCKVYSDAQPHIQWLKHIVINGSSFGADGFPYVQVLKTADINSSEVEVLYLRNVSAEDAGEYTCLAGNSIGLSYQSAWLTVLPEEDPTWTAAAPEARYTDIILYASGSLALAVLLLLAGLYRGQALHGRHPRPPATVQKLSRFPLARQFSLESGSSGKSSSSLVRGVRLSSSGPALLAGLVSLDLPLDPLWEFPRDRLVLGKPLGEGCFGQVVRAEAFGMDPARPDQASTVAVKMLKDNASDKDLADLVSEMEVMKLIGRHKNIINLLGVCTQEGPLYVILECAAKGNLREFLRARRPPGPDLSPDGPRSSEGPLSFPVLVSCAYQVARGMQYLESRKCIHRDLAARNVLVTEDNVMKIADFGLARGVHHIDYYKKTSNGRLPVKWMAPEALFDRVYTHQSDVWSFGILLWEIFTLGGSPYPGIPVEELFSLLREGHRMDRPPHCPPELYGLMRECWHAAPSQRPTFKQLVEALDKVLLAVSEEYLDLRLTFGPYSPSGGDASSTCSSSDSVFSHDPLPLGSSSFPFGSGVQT
T1 sequence (P22455 whole entry V550L, the tested form may be a part): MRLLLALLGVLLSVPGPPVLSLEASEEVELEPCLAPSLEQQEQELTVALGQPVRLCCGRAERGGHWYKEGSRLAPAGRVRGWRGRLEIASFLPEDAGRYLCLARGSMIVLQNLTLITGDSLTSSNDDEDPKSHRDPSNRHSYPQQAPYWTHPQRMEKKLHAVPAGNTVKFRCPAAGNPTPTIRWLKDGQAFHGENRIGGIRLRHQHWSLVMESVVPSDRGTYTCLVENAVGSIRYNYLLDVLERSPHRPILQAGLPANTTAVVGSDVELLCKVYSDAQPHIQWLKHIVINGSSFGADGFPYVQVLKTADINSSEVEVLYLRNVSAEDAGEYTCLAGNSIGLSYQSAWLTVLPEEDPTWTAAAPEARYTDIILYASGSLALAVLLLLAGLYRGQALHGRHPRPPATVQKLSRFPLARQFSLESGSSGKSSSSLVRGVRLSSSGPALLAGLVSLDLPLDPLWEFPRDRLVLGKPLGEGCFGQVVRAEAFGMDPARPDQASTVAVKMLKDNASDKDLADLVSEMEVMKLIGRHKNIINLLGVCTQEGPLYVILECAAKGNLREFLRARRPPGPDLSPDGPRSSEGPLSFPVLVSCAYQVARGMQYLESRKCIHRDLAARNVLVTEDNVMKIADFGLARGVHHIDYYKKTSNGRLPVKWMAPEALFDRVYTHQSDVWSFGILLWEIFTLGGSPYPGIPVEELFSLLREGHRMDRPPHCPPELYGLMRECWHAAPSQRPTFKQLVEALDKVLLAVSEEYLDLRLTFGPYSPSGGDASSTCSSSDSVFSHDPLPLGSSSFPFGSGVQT
Sequence of FGFR4 kinase (P22455 22-802): as the sequence (P22455 22-802 V550L) above, with L529V counted along it
T2 sequence (P22455 whole entry, change not shown, the tested form may be a part): as the sequence (P22455 whole entry V550L, the tested form may be a part) above, with L550V counted along it

On to `C=CC(=O)Nc1cc(N2CCN(CC)CC2)c(C)cc1Nc1ncc(C#N)c(Nc2ccccc2OC(C)C)n1` [Example 8, N-(2-((5-cyano-4-((2-isopropoxyphenyl)amino)pyrimidin-2-yl)amino)-5-(4-ethylpiperazin-1-yl)-4-methylphenyl) acrylamide], for which the GI50 in experiment [1] and in experiment [2] was at most 10 nM throughout. In addition, the IC50 was 10 to 50 nM in experiment [3] and at most 10 nM in experiment [4].

`C=CC(=O)Nc1cc(N2CCC(N3CCCC3)CC2)c(C)cc1Nc1ncc(C#N)c(Nc2ccccc2OC(C)C)n1` [Example 10, N-(2-((5-cyano-4-((2-isopropoxyphenyl)amino)pyrimidin-2-yl)amino)-4-methyl-5-(4-(pyrrolidin-1-yl)piperidin-1-yl)phenyl) acrylamide]: the figures for the GI50 in experiment [1] and in experiment [2] were 10 to 50 nM and at most 10 nM, respectively. Moreover, the IC50 in experiment [3] and in experiment [4] was 10 to 50 nM each time.

On to `C=CC(=O)Nc1cc(N2CCC(N3CCN(C)CC3)CC2)c(C)cc1Nc1ncc(C#N)c(Nc2ccccc2OC(C)C)n1` [Example 13, N-(2-((5-cyano-4-((2-isopropoxyphenyl)amino)pyrimidin-2-yl)amino)-4-methyl-5-(4-(4-methylpiperazin-1-yl)piperidin-1-yl)phenyl) acrylamide], for which the results for the GI50 in experiment [1] and in experiment [2] were 10 to 50 nM and at most 10 nM, respectively. For the same compound, the IC50 in experiment [3] and in experiment [4] was 10 to 50 nM in each case.

Turning to `C=CC(=O)Nc1cc(N2CCN(C)CC2)c(F)cc1Nc1ncc(C#N)c(Nc2ccccc2OC(C)C)n1` [Example 14, N-(2-((5-cyano-4-((2-isopropoxyphenyl)amino)pyrimidin-2-yl)amino)-4-fluoro-5-(4-methylpiperazin-1-yl)phenyl) acrylamide], the GI50 in experiment [1] and in experiment [2] was at most 10 nM throughout. The IC50 in experiment [3] was in the range of 50 to 100 nM; in experiment [4], 10 to 50 nM.

Turning to `C=CC(=O)Nc1cc(N2CCN(CC)CC2)c(F)cc1Nc1ncc(C#N)c(Nc2ccccc2OC(C)C)n1` [Example 15, N-(2-((5-cyano-4-((2-isopropoxyphenyl)amino)pyrimidin-2-yl)amino)-5-(4-ethylpiperazin-1-yl)-4-fluorophenyl) acrylamide], the GI50 in experiment [1] and in experiment [2] was at most 10 nM each time. Further, the IC50 is 50 to 100 nM in experiment [3] and 10 to 50 nM in experiment [4].

As to `C=CC(=O)Nc1cc(N2CCC(N(C)C)CC2)c(F)cc1Nc1ncc(C#N)c(Nc2ccccc2OC(C)C)n1` [Example 16, N-(2-((5-cyano-4-((2-isopropoxyphenyl)amino)pyrimidin-2-yl)amino)-5-(4-(dimethylamino)piperidin-1-yl)-4-fluorophenyl) acrylamide], the GI50 in experiment [1] and in experiment [2] was at most 10 nM each time. Also, the IC50 was 10 to 50 nM in experiment [3] and at most 10 nM in experiment [4].

For `C=CC(=O)Nc1cc(N2CCC(N3CCCC3)CC2)c(F)cc1Nc1ncc(C#N)c(Nc2ccccc2OC(C)C)n1` [Example 17, N-(2-((5-cyano-4-((2-isopropoxyphenyl)amino)pyrimidin-2-yl)amino)-4-fluoro-5-(4-(pyrrolidin-1-yl)piperidin-1-yl)phenyl) acrylamide], the GI50 in experiment [1] and in experiment [2] was at most 10 nM throughout. The IC50 in experiment [3] and in experiment [4] was 10 to 50 nM throughout.

`C=CC(=O)Nc1cc(N2CCC(N3CCCCC3)CC2)c(F)cc1Nc1ncc(C#N)c(Nc2ccccc2OC(C)C)n1` [Example 18, N-(5-([1,4‘- bipiperidin]-1′-yl)-2-((5-cyano-4-((2-isopropoxyphenyl)amino)pyrimidin-2-yl)amino)-4-fluorophenyl) acrylamide]: the GI50 in experiment [1] and in experiment [2] was at most 10 nM each time. For the same compound, the IC50 in experiment [3] and in experiment [4] was 10 to 50 nM each time.

For `C=CC(=O)Nc1cc(N2CCC(N3CCOCC3)CC2)c(F)cc1Nc1ncc(C#N)c(Nc2ccccc2OC(C)C)n1` [Example 19, N-(2-((5-cyano-4-((2-isopropoxyphenyl)amino)pyrimidin-2-yl)amino)-4-fluoro-5-(4-morpholinopiperidin-1-yl)phenyl) acrylamide], the GI50 in experiment [1] and in experiment [2] was at most 10 nM in each case. For the same compound, the IC50 was 100 to 1000 nM in experiment [3] and 10 to 50 nM in experiment [4].

`C=CC(=O)Nc1cc(N2CCC(N3CCN(C)CC3)CC2)c(F)cc1Nc1ncc(C#N)c(Nc2ccccc2OC(C)C)n1` [Example 20, N-(2-((5-cyano-4-((2-isopropoxyphenyl)amino)pyrimidin-2-yl)amino)-4-fluoro-5-(4-(4-methylpiperazin-1-yl)piperidin-1-yl)phenyl) acrylamide]: the GI50 in experiment [1] and in experiment [2] was at most 10 nM each time. The concentration for half-maximal inhibition (IC50) in experiment [3] and in experiment [4] was 10 to 50 nM throughout.

As to `C=CC(=O)Nc1cc(N2CCN(CC)CC2)ccc1Nc1ncc(C#N)c(Nc2c(F)cccc2OC(C)C)n1` [Example 21, N-(2-((5-cyano-4-((2-fluoro-6-isopropoxyphenyl)amino)pyrimidin-2-yl)amino)-5-(4-ethylpiperazin-1-yl)phenyl) acrylamide], the results for the GI50 in experiment [1] and in experiment [2] were 10 to 50 nM and at most 10 nM, respectively. Also, the concentration for half-maximal inhibition (IC50) in experiment [3] and in experiment [4] was 10 to 50 nM each time.

Take `C=CC(=O)Nc1cc(N2CCN(CC)CC2)ccc1Nc1ncc(C#N)c(Nc2c(C)cccc2OC(C)C)n1` [Example 22, N-(2-((5-cyano-4-((2-isopropoxy-6-methylphenyl)amino)pyrimidin-2-yl)amino)-5-(4-ethylpiperazin-1-yl)phenyl) acrylamide]: the GI50 in experiment [1] and in experiment [2] was 100 to 1000 nM each time. The IC50 in experiment [3] and in experiment [4] was 100 to 1000 nM each time.

Turning to `C=CC(=O)Nc1cc(N2CCN(CC)CC2)ccc1Nc1ncc(C#N)c(Nc2cc(F)ccc2OC(C)C)n1` [Example 23, N-(2-((5-cyano-4-((5-fluoro-2-isopropoxyphenyl)amino)pyrimidin-2-yl)amino)-5-(4-ethylpiperazin-1-yl)phenyl) acrylamide], the GI50 in experiment [1] and in experiment [2] was at most 10 nM each time. Also, the 50% inhibitory concentration (IC50) in experiment [3] was 50 to 100 nM; in experiment [4], at most 10 nM.

The values above are taken from patent US12582654B2, “Cyano-substituted pyridine and cyano-substituted pyrimidine compound and preparation method therefor and application thereof” (BEIJING SCITECH-MQ PHARMACEUTICALS LIMITED, priority 2019, dated 2026).
